Measured values published in ChEMBL document CHEMBL3414499, “Characterization of two distinct structural classes of selective aldehyde dehydrogenase 1A1 inhibitors” (J Med Chem, 2015).
Activity calls are given as the source filed them. The calls are words filed in the database; no cut-off is given here.

Columns and labels:
[1] = molecular target: T1, Aldehyde dehydrogenase, dimeric NADP-preferring (Homo sapiens) (UniProt P30838); experiment: Effect on recombinant human ALDH3A1 using benzaldehyde as substrate at 20 uM preincubated for 2 mins with NAD+ followed by substrate addition by UV-Vis spectrophotometric analysis
T1 sequence (whole entry): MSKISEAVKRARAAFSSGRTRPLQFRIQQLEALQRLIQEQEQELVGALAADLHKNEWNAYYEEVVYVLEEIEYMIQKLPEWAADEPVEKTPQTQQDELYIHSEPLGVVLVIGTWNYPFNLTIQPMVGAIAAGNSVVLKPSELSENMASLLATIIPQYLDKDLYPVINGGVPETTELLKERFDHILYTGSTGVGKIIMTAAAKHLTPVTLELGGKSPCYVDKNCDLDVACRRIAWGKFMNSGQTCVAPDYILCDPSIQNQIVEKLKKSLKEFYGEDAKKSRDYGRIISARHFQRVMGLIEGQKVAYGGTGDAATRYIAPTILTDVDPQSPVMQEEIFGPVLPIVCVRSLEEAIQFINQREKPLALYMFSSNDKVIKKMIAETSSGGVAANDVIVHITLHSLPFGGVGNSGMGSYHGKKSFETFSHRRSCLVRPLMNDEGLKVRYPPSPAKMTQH

[2] = molecular target: T2, Delta-1-pyrroline-5-carboxylate dehydrogenase, mitochondrial (Homo sapiens) (UniProt P30038); experiment: Effect on human ALDH4A1 at 20 uM preincubated for 2 mins with NAD+ followed by aldehyde substrate addition
T2 sequence (whole entry): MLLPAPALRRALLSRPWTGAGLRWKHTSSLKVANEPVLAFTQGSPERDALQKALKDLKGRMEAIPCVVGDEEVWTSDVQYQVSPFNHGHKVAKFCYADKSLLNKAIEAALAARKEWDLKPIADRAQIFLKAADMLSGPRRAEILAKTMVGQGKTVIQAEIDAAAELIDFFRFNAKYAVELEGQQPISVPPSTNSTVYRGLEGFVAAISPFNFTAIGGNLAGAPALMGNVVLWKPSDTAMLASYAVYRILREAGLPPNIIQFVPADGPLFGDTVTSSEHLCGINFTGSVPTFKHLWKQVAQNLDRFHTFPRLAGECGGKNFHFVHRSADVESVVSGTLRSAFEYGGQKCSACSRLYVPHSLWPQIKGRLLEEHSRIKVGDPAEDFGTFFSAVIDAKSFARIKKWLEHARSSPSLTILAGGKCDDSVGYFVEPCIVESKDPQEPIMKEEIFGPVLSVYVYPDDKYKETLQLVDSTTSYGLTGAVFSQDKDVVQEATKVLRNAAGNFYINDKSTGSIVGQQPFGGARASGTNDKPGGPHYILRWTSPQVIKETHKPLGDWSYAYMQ

[3] = molecular target: T3, Retinaldehyde dehydrogenase 3 (Homo sapiens) (UniProt P47895); experiment: Effect on recombinant human ALDH1A3 using propionaldehyde as substrate at 20 uM preincubated for 2 mins with NAD+ followed by substrate addition by UV-Vis spectrophotometric analysis
T3 sequence (whole entry): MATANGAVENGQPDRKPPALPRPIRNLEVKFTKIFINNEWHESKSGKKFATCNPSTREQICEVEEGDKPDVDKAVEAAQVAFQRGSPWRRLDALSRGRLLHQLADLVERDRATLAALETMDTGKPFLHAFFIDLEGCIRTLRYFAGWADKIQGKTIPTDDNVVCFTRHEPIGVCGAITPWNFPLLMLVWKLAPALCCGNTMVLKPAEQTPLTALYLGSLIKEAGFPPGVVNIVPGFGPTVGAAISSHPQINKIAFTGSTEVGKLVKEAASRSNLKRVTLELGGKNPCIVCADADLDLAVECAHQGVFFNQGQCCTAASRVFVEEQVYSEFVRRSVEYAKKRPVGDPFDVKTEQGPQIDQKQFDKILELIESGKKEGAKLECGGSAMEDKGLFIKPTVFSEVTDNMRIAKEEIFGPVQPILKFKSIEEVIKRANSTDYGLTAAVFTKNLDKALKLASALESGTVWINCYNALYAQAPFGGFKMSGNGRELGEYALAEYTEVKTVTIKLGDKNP

[4] = molecular target: T4, Retinal dehydrogenase 2 (Homo sapiens) (UniProt O94788); experiment: Effect on recombinant human ALDH1A2 using propionaldehyde as substrate at 20 uM preincubated for 2 mins with NAD+ followed by substrate addition by UV-Vis spectrophotometric analysis
T4 sequence (whole entry): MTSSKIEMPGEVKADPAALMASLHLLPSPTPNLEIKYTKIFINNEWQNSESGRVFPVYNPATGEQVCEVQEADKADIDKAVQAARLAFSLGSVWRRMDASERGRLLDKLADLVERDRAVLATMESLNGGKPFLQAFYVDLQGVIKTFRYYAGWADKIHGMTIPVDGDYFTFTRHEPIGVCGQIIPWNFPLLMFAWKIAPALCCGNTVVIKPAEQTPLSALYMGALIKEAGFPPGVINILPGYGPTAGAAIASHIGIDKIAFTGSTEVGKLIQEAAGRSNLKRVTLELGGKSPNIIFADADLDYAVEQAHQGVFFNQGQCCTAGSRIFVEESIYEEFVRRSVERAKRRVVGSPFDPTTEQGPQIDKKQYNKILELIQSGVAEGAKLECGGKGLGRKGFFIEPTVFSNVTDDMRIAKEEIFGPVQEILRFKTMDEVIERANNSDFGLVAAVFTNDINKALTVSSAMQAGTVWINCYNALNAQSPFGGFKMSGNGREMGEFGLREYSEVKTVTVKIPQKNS

[5] = molecular target: T5, Retinaldehyde dehydrogenase 3 (Homo sapiens, UniProt P47895); experiment: Inhibition of recombinant human ALDH1A3 using propionaldehyde as substrate preincubated for 2 mins with NAD+ followed by substrate addition by UV-Vis spectrophotometric analysis
T5 sequence (P47895 whole entry): T3 sequence (whole entry)

## CC(C)CCn1c(CN2CCN(C(=O)c3ccco3)CC2)nc2c1c(=O)n(C)c(=O)n2C
[1]
  Activity: inactive
[2]
  Activity: inactive
[3]
  Activity: inactive
[4]
  Activity: inactive

## CCCCn1c(CN2CCN(c3cccc(Cl)c3)CC2)nc2c1c(=O)n(C)c(=O)n2C
[5]
  IC50: > 20 µM

## CCCCn1c(CN2CCN(c3ccc(OC)cc3)CC2)nc2c1c(=O)n(C)c(=O)n2C
[5]
  IC50: > 100 µM
